The record followed here is patent publication US20160135455A1, “SAFENED HERBICIDAL COMPOSITIONS COMPRISING PYRIDINE CARBOXYLIC ACIDS” (Dow AgroSciences LLC, priority 2014, published 2016).

What all share (assay type): in vivo
Data set [1] has as its system velvetleaf (ABUTH, Abutilon theophrasti). Nature of the data set: Postemergence greenhouse trial, herbicidal efficacy on velvetleaf. Particulars: post-emergence, 528 h, applied alone at 35 g/ha, postemergence. The protocol: (§1) Seeds of the desired test plant species were planted in Sun Gro MetroMix® 306 planting mixture, which typically has a pH of 6.0 to 6.8 and an organic matter content of about 30 percent, in plastic pots with a surface area of 103.2 square centimeters (cm^2). When required to ensure good germination and healthy plants, a fungicide treatment and/or other chemical or physical treatment was applied. The plants were grown for 7-36 days (d) in a greenhouse with an approximate 14-hour (h) photoperiod which was maintained at about 23° C. during the day and 22° C. during the night. Nutrients and water were added on a regular basis and supplemental lighting was provided with overhead metal halide 1000-Watt lamps as necessary. The plants were employed for testing when they reached the second or third true leaf stage.
(§2) Weighed amounts of technical material were dissolved in a volume of 97:3 volume per volume (v/v) acetone/dimethyl sulfoxide (DMSO) to stock solutions. […] The concentrated stock solutions were diluted with an aqueous mixture of 1.5% v/v of Agri-dex crop oil concentrate to provide the appropriate application rates. Compound requirements are based upon a 12 milliliter (mL) application volume at a rate of 187 liters per hectare (L/ha). Stocks solutions of the safeners were prepared following the same procedure. Spray solutions of the safeners and experimental compound mixtures were prepared by adding the stock solutions to the appropriate amount of dilution solution to form a 12 mL spray solution in two-way combinations. Formulated compounds were applied to the plant material with an overhead Mandel track sprayer equipped with 8002E nozzles calibrated to deliver 187 L/ha over an application area of 0.503 square meters (m^2) at a spray height of 18 inches (43 centimeters (cm)) above average plant canopy. Control plants were sprayed in the same manner with the solvent blank. All herbicide application (component a) rates are in g ae/ha and all safener (component b) rates are in g ai/ha.
(§3) The treated plants and control plants were placed in a greenhouse as described above and watered by sub-irrigation to prevent wash-off of the test compounds. After 20-22 d, the condition of the test plants as compared with that of the control plants was determined visually and scored on a scale of 0 to 100 percent where 0 corresponds to no injury and 100 corresponds to complete kill. The condition of the test plants was compared with that of the control plants as determined visually and scored on a scale of 0 to 100 percent, where 0 corresponds to no injury and 100 corresponds to complete kill. Colby's equation was used to determine the herbicidal effects expected from the mixtures.

Data set [2] concerns chickweed (STEME, Stellaria media). Nature of the data set: Postemergence greenhouse trial, herbicidal efficacy on chickweed. The conditions noted are these: post-emergence, 528 h, applied alone at 35 g/ha, postemergence. The method, then:
as §1, §2, §3

Data set [3] has as its system thistle (CIRAR, Cirsium arvense). Description: Postemergence greenhouse trial, herbicidal efficacy on thistle. The conditions noted are these: post-emergence, 528 h, applied alone at 35 g/ha, postemergence. The method, then:
as §1, §2, §3

For data set [4], the system named is wild buckwheat (POLCO, Polygonum convolvulus). Description: Postemergence greenhouse trial, herbicidal efficacy on wild buckwheat. The conditions noted are these: Fallopia convolvulus, post-emergence, 528 h, applied alone at 35 g/ha, postemergence. The protocol: as §1, §2, §3
For data set [5], the system named is winter rape (BRSNW, Brassica napus). Nature of the data set: Postemergence greenhouse trial, herbicidal efficacy on winter rape. Particulars: post-emergence, 528 h, applied alone at 35 g/ha, postemergence. The protocol: as §1, §2, §3
Data set [6] concerns poinsettia (EPHHL, Euphorbia heterophylla). Description: Postemergence greenhouse trial, herbicidal efficacy on poinsettia. The conditions noted are these: applied alone at 35 g/ha, postemergence; for pest or weed control at 35 g/ha: Euphorbia heterophylla, post-emergence, 528 h, rated after 20-22 d, read-out: % visual injury, Obs, EPHHL; for Obs, % visual injury, EPHHL: scored 20-22 d. The protocol: as §1, §2, §3

Data set [7] concerns pigweed (AMARE, Amaranthus retroflexus). Nature of the data set: Postemergence greenhouse trial, herbicidal efficacy on pigweed. The conditions noted are these: post-emergence, 528 h, applied alone at 35 g/ha, postemergence. The protocol:
as §1, §2, §3

For data set [8], the system named is lambsquarters (CHEAL, Chenopodium album). Nature of the data set: Postemergence greenhouse trial, herbicidal efficacy on lambsquarters. The conditions noted are these: post-emergence, 528 h, applied alone at 35 g/ha, postemergence. The protocol: as §1, §2, §3
Data set [9] relates to wild pansy (VIOTR, Viola tricolor). Nature of the data set: Postemergence greenhouse trial, herbicidal efficacy on wild pansy. Particulars: applied alone at 35 g/ha, postemergence; for pest or weed control at 35 g/ha: Viola tricolor, post-emergence, 528 h, scored 20-22 d, read-out: Obs, % visual injury, VIOTR; for % visual injury, Obs, VIOTR: rated after 20-22 d. The method, then: as §1, §2, §3

Data set [10] deals with sorghum (SORVU, Sorghum bicolor). Description: Postemergence greenhouse trial, herbicidal efficacy on sorghum. Particulars: applied alone at 35 g/ha; for Obs, % visual injury, SORVU: scored 20-22 d. The protocol: as §1, §2, §3
The test system of data set [11] is wheat (TRZAS), Triticum aestivum (spring wheat). Description: Postemergence greenhouse trial, crop injury (phytotoxicity/safening) on wheat. The conditions noted are these: applied alone at 35 g/ha, scored 20-22 d, 0 = no injury, 100 = complete kill. The protocol:
as §1, §2, §3
The safener fenchlorazole-ethyl was combined with compound 1, compound 2, compound 3, compound 4, compound 5, and compound 6, and applied to wheat (TRZAS), and the phytotoxicity of the herbicidal compositions was measured. In addition, the efficacy of the herbicidal composition on velvetleaf (ABUTH, Abutilon theophrasti), pigweed (AMARE, Amaranthus retroflexus), winter rape (BRSNW, Brassica napus), lambsquarters (CHEAL, Chenopodium album), thistle (CIRAR, Cirsium arvense), nutsedge (CYPES, Cyperus esculentus), poinsettia (EPHHL, Euphorbia heterophylla), wild buckwheat (POLCO, Polygonum convolvulus), giant foxtail (SETFA, Setaria faberi), sorghum (SORVU, Sorghum bicolor), chickweed (STEME, Stellaria media), and wild pansy (VIOTR, Viola tricolor) was evaluated.
The safener isoxadifen-ethyl was combined with compound 1, compound 2, compound 3, compound 4, compound 5, and compound 6, and applied to wheat (TRZAS), and the phytotoxicity of the herbicidal compositions was measured. […]

Data set [12] deals with giant foxtail (SETFA, Setaria faberi). Nature of the data set: Postemergence greenhouse trial, herbicidal efficacy on giant foxtail. The conditions noted are these: applied alone at 35 g/ha. The protocol: as §1, §2, §3
The test system of data set [13] is nutsedge (CYPES, Cyperus esculentus). Nature of the data set: Postemergence greenhouse trial, herbicidal efficacy on nutsedge. The conditions noted are these: applied alone at 35 g/ha. The protocol: as §1, §2, §3
The mark [14] stands for this setting: rated after 20-22 d, read-out: % visual injury, Obs, ABUTH.
[15] abbreviates: scored 20-22 d, read-out: Obs, % visual injury, ABUTH.
The mark [16] stands for this setting: rated after 20-22 d, read-out: % visual injury, Obs, STEME.
Setting [17] is: scored 20-22 d, read-out: Obs, % visual injury, STEME.
Where [18] appears, read: rated after 20-22 d, read-out: % visual injury, Obs, CIRAR.
The mark [19] stands for this setting: scored 20-22 d, read-out: Obs, % visual injury, CIRAR.
Where [20] appears, read: rated after 20-22 d, read-out: % visual injury, Obs, POLCO.
Setting [21] is: scored 20-22 d, read-out: Obs, % visual injury, POLCO.
Where [22] appears, read: rated after 20-22 d, read-out: % visual injury, Obs, BRSNW.
[23] abbreviates: scored 20-22 d, read-out: Obs, % visual injury, BRSNW.
The mark [24] stands for this setting: rated after 20-22 d, read-out: % visual injury, Obs, AMARE.
The mark [25] stands for this setting: scored 20-22 d, read-out: Obs, % visual injury, AMARE.
[26] abbreviates: rated after 20-22 d, read-out: % visual injury, Obs, CHEAL.
[27] abbreviates: scored 20-22 d, read-out: Obs, % visual injury, CHEAL.

Where two headings read alike, the source gives them in different places.

`Nc1c(F)c(-c2ccc3cc[nH]c3c2F)nc(C(=O)O)c1Cl` [compound 1]: the pest or weed control at 35 g/ha in [1] (setting [14]) came to 85%; in [1] (setting [15]), 85%; in data set [2] (setting [16]), 100%; in data set [2] (setting [17]), 100%; in data set [3] (setting [18]), 90%; in data set [3] (setting [19]) it was 90%. In addition, the pest or weed control at 35 g/ha came to 99% in [4] (setting [20]); 99% in [4] (setting [21]); 100% in data set [6]; 100% in data set [7] (setting [24]); 100% in data set [7] (setting [25]); 100% in data set [8] (setting [26]). For the same compound, the figures for the pest or weed control at 35 g/ha in data set [8] (setting [27]) and in data set [9] were 100% and 64%, respectively. Besides, the plant injury at 35 g/ha in [5] (setting [22]) and in data set [5] (setting [23]) was 99% in each case. Moreover, in data set [6], the “Obs, % visual injury, EPHHL” value is 100%. For the same compound, the “% visual injury, Obs, VIOTR” value in data set [9] is recorded as 64%.
As for `Nc1c(F)c(-c2ccc3cc[nH]c3c2F)nc(C(=O)OCc2ccccc2)c1Cl` [compound 2], the pest or weed control at 35 g/ha in [1] (setting [14]) was found to be 80%; in data set [2] (setting [16]), 100%; in [2] (setting [17]) it was 100%; in [3] (setting [18]), 70%; in [3] (setting [19]) it was 70%; in data set [4] (setting [20]) it was 100%. In addition, the pest or weed control at 35 g/ha in data set [4] (setting [21]) was 100%; in data set [6], 100%; in data set [7] (setting [24]) it was 100%; in [7] (setting [25]), 100%; in data set [8] (setting [26]), 97%; in data set [8] (setting [27]), 97%. The pest or weed control at 35 g/ha in data set [9] amounted to 40%. In [10], the “Obs, % visual injury, SORVU” value came to 70%. Besides, the plant injury at 35 g/ha in [5] (setting [22]) and in data set [5] (setting [23]) was 100% in each case. In data set [9], the “% visual injury, Obs, VIOTR” value worked out at 40%.
Turning to `COC(=O)c1nc(-c2ccc3ccn(C(C)=O)c3c2F)c(F)c(N)c1Cl` [compound 3], in data set [11], the “Obs, % visual injury, TRZAS” value was 30%. In addition, the pest or weed control at 35 g/ha in data set [1] (setting [15]) is 50%; in data set [3] (setting [19]), 50%; in data set [4] (setting [21]) it was 97%; in [7] (setting [25]) it was 75%; in data set [8] (setting [27]), 85%. In data set [5] (setting [23]), the plant injury at 35 g/ha was found to be 30%. In addition, in data set [6], the “Obs, % visual injury, EPHHL” value came to 100%.
`CCOC(=O)c1nc(C(Cl)(Cl)Cl)n(-c2ccc(Cl)cc2Cl)n1` [fenchlorazole-ethyl, reference compound]: the pest or weed control at 35 g/ha in data set [1] (setting [14]), in data set [1] (setting [15]), in [2] (setting [16]), in [2] (setting [17]), in data set [3] (setting [18]) and in data set [3] (setting [19]) was 0% each time. The pest or weed control at 35 g/ha in data set [4] (setting [20]), in data set [4] (setting [21]), in data set [6], in data set [7] (setting [24]), in [7] (setting [25]) and in [8] (setting [26]) was 0% in each case. Also, the pest or weed control at 35 g/ha in data set [8] (setting [27]) and in [9] was 0% throughout. Also, the “% visual injury, Obs, SETFA” value in [12] (rated after 20-22 d) came out at 0%. Also, the “Obs, % visual injury, SETFA” value in data set [12] (scored 20-22 d) is 0%. Besides, the “% visual injury, Obs, SORVU” value in data set [10] (rated after 20-22 d) is given as 0%. For the same compound, in [10], the “Obs, % visual injury, SORVU” value is reported as 0%. The “% visual injury, Obs, CYPES” value in data set [13] (rated after 20-22 d) came to 0%. Besides, the “Obs, % visual injury, CYPES” value in [13] (scored 20-22 d) was determined as 0%. Besides, the plant injury at 35 g/ha in data set [5] (setting [22]) and in data set [5] (setting [23]) was 0% in each case. Moreover, the “Obs, % visual injury, EPHHL” value in data set [6] worked out at 0%.
